Assay results taken from patent US6737383B1, “Herbicidal oxadiazolidines” (priority 1999, dated 2004).

How the values were obtained:
[1] = tested on: sugar beet; test: Test B pre/postemergence sugar beet; format: in vivo, Beta vulgaris; conditions: for Plant response rating, Sugarbeets: scale of 0 to 10 where 0 is no effect and 10 is complete control
How it was run: (§1)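 Herbicidal effect was estimated by eye on a ten-point control scale after plants spent twelve to sixteen days in a greenhouse following soil or foliar treatment. Foliar sprays targeted plants at one to four leaves; all doses were formulated in a non-phytotoxic solvent with surfactant.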

[2] = tested on: soybean; test: Test B pre/postemergence soybean; format: in vivo, Glycine max; conditions: for Plant response rating, Soybean: scale of 0 to 10 where 0 is no effect and 10 is complete control
How it was run: as §1

[3] = tested on: pigweed; test: Test B pre/postemergence pigweed; format: in vivo, Amaranthus retroflexus; conditions: for Plant response rating, Redroot pigweed: scale of 0 to 10 where 0 is no effect and 10 is complete control
How it was run: as §1

[4] = tested on: wild oat; test: Test B pre/postemergence wild oat; format: in vivo, Avena fatua; conditions: for Plant response rating, Wild oats: scale of 0 to 10 where 0 is no effect and 10 is complete control
How it was run: as §1

[5] = tested on: surinam grass; test: Test B pre/postemergence surinam grass; format: in vivo, Brachiaria decumbens
How it was run: as §1

[6] = tested on: bedstraw; test: Test B pre/postemergence bedstraw; format: in vivo, Galium aparine; conditions: Preemergence, scale of 0 to 10 where 0 is no effect and 10 is complete control
How it was run: as §1

[7] = tested on: blackgrass; test: Test B pre/postemergence blackgrass; format: in vivo, Alopecurus myosuroides
How it was run: as §1

[8] = tested on: smallflower flatsedge; test: Test B flood test smallflower flatsedge; format: in vivo, Cyperus difformis
How it was run: (§2)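 Read-out is a visual response score from 0 (no effect) to 10 (complete control), assigned by comparison with untreated controls. Treatment was applied at the 2-leaf stage, and plants stayed in the greenhouse for twelve to sixteen days before scoring.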

[9] = tested on: rape; test: Test B pre/postemergence rape; format: in vivo, Brassica napus; conditions: for Plant response rating, Rape: scale of 0 to 10 where 0 is no effect and 10 is complete control
How it was run: as §1

[10] = tested on: duck salad; test: Test B flood test duck salad; format: in vivo, Heteranthera limosa
How it was run: as §2

[11] = tested on: rice; test: Test B flood test rice; format: in vivo, Oryza sativa
How it was run: as §2

[12] = tested on: purple nutsedge; test: Test B pre/postemergence purple nutsedge; format: in vivo, Cyperus rotundus; conditions: for Plant response rating, Nutsedge: scale of 0 to 10 where 0 is no effect and 10 is complete control
How it was run: as §1

[13] = tested on: wheat; test: Test B pre/postemergence wheat; format: in vivo, Triticum aestivum; conditions: for Plant response rating, Wheat: scale of 0 to 10 where 0 is no effect and 10 is complete control
How it was run: as §1

[14] = tested on: corn; test: Test B pre/postemergence corn; format: in vivo, Zea mays
How it was run: as §1

[15] = tested on: velvetleaf; test: Test B pre/postemergence velvetleaf; format: in vivo, Abutilon theophrasti; conditions: for Plant response rating, Velvetleaf: scale of 0 to 10 where 0 is no effect and 10 is complete control
How it was run: as §1

[16] = tested on: crabgrass; test: Test B pre/postemergence crabgrass; format: in vivo, Digitaria sanguinalis
How it was run: as §1

[17] = Postemergence, Rate 250 g/ha, scale 0 to 10
[18] = Preemergence, Rate 250 g/ha, scale 0 to 10, 0 is no effect, 10 is complete control
[19] = Preemergence, Rate 500 g/ha, scale 0 to 10, 0 is no effect, 10 is complete control
[20] = Rate 62 g/ha, Postemergence, scale 0 to 10, 0 no effect, 10 complete control
[21] = Rate 125 g/ha, Postemergence, scale 0 to 10, 0 is no effect, 10 is complete control
[22] = Postemergence, Rate 500 g/ha, scale of 0 to 10 where 0 is no effect and 10 is complete control
[23] = Preemergence, Rate 62 g/ha, scale of 0 to 10 where 0 is no effect and 10 is complete control
[24] = Preemergence, Rate 125 g/ha, scale of 0 to 10 where 0 is no effect and 10 is complete control
[25] = Rate 62 g/ha, flood test species, Pre-emergence, visual evaluation after twelve to sixteen days
[26] = Rate 125 g/ha, under heading Pre-emergence, flood test species, visual evaluation after twelve to sixteen days
[27] = Rate 250 g/ha, Pre-emergence (flood test species), scale 0 to 10, 0 is no effect, 10 is complete control
[28] = Rate 500 g/ha, Pre-emergence, flood test species, scale 0 to 10 (0 no effect, 10 complete control)

With `CC(C)N(C(=O)n1oc(=O)n(CC#N)c1=O)c1ccc(Cl)cc1` [Compound 476] the “Sugarbeets plant response rating” value [1, 17] was 0, the “Plant response rating, Sugarbeets” value ([1]; Preemergence, Rate 62 g/ha) was 0 and the “Plant response rating, Sugarbeets” value ([1]; Preemergence, Rate 125 g/ha) was 0. The “Sugarbeets plant response rating” value [1, 18] was 0, the “Sugarbeets plant response rating” value [1, 19] was 0 and the “Sugarbeets plant response rating” value [1, 20] was 0. The “Sugarbeets plant response rating” value [1, 21] was 0, the “Soybean plant response rating” value [2, 17] was 2 and the “Plant response rating, Soybean” value ([2]; Preemergence, Rate 62 g/ha) was 0. The “Plant response rating, Soybean” value ([2]; Preemergence, Rate 125 g/ha) was 0, the “Soybean plant response rating” value [2, 18] was 0 and the “Soybean plant response rating” value [2, 19] was 0. For the same compound, the “Soybean plant response rating” value [2, 20] was 0, the “Soybean plant response rating” value [2, 21] was 1 and the “Redroot pigweed plant response rating” value [3, 17] was 0. For the same compound, the “Plant response rating, Redroot pigweed” value ([3]; Preemergence, Rate 62 g/ha) was 0, the “Plant response rating, Redroot pigweed” value ([3]; Preemergence, Rate 125 g/ha) was 0 and the “Redroot pigweed plant response rating” value [3, 18] was 2. The “Redroot pigweed plant response rating” value [3, 19] was 4, the “Redroot pigweed plant response rating” value [3, 20] was 0 and the “Redroot pigweed plant response rating” value [3, 21] was 0. The “Wild oats plant response rating” value [4, 17] was 0, the “Plant response rating, Wild oats” value ([4]; Preemergence, Rate 62 g/ha) was 0 and the “Plant response rating, Wild oats” value ([4]; Preemergence, Rate 125 g/ha) was 0. For the same compound, the “Wild oats plant response rating” value [4, 18] was 0, the “Wild oats plant response rating” value [4, 19] was 0 and the “Wild oats plant response rating” value [4, 20] was 0. For the same compound, the “Wild oats plant response rating” value [4, 21] was 0, the “B. signalgrass plant response rating” value ([5]; Postemergence, Rate 250 g/ha, scale 0 to 10, 0 no effect, 10 complete control) was 0 and the “B. signalgrass plant response rating” value [5, 22] was 0. The “Plant response rating, B. signalgrass” value [5, 23] was 0, the “Plant response rating, B. signalgrass” value [5, 24] was 0 and the “B. signalgrass plant response rating” value [5, 18] was 0. The “B. signalgrass plant response rating” value [5, 19] was 0, the “B. signalgrass plant response rating” value [5, 20] was 0 and the “B. signalgrass plant response rating” value [5, 21] was 0. The “Plant response rating, Bedstraw” value ([6]; Rate 62 g/ha) was 0, the “Plant response rating, Bedstraw” value ([6]; Rate 125 g/ha) was 0 and the “Blackgrass plant response rating” value [7, 17] was 0. The “Blackgrass plant response rating” value [7, 22] was 2, the “Plant response rating, Blackgrass” value [7, 23] was 0 and the “Plant response rating, Blackgrass” value [7, 24] was 0. For the same compound, the “Blackgrass plant response rating” value [7, 18] was 0, the “Blackgrass plant response rating” value [7, 19] was 0 and the “Blackgrass plant response rating” value [7, 20] was 0. The “Blackgrass plant response rating” value [7, 21] was 0, the “Plant response rating, S. Flatsedge (0 to 10 scale, 0 is no effect, 10 is complete control)” value [8, 25] was 0 and the “S. Flatsedge plant response rating (0 to 10 scale, 0 is no effect, 10 is complete control)” value [8, 26] was 0. The “S. Flatsedge plant response rating” value [8, 27] was 0, the “S. Flatsedge plant response rating” value [8, 28] was 0 and the “Rape plant response rating” value [9, 17] was 0. For the same compound, the “Plant response rating, Rape” value ([9]; Preemergence, Rate 62 g/ha) was 0, the “Plant response rating, Rape” value ([9]; Preemergence, Rate 125 g/ha) was 0 and the “Rape plant response rating” value [9, 18] was 0. For the same compound, the “Rape plant response rating” value [9, 19] was 0, the “Rape plant response rating” value [9, 20] was 0 and the “Rape plant response rating” value [9, 21] was 0. For the same compound, the “Plant response rating, Ducksalad (0 to 10 scale, 0 is no effect, 10 is complete control)” value [10, 25] was 0, the “Ducksalad plant response rating (0 to 10 scale, 0 is no effect, 10 is complete control)” value [10, 26] was 0 and the “Ducksalad plant response rating” value [10, 27] was 0. The “Ducksalad plant response rating” value [10, 28] was 0, the “Plant response rating, Rice (0 to 10 scale, 0 is no effect, 10 is complete control)” value [11, 25] was 0 and the “Rice plant response rating (0 to 10 scale, 0 is no effect, 10 is complete control)” value [11, 26] was 0. For the same compound, the “Rice plant response rating” value [11, 27] was 0, the “Rice plant response rating” value [11, 28] was 0 and the “Nutsedge plant response rating” value [12, 17] was 0. The “Plant response rating, Nutsedge” value ([12]; Preemergence, Rate 62 g/ha) was 0, the “Plant response rating, Nutsedge” value ([12]; Preemergence, Rate 125 g/ha) was 0 and the “Nutsedge plant response rating” value [12, 18] was 0. The “Nutsedge plant response rating” value [12, 19] was 0, the “Nutsedge plant response rating” value [12, 20] was 0 and the “Nutsedge plant response rating” value [12, 21] was 0. For the same compound, the “Wheat plant response rating” value [13, 17] was 0, the “Plant response rating, Wheat” value ([13]; Preemergence, Rate 62 g/ha) was 0 and the “Plant response rating, Wheat” value ([13]; Preemergence, Rate 125 g/ha) was 0. The “Wheat plant response rating” value [13, 18] was 0, the “Wheat plant response rating” value [13, 19] was 0 and the “Wheat plant response rating” value [13, 20] was 0. The “Wheat plant response rating” value [13, 21] was 0, the “Corn plant response rating” value [14, 17] was 0 and the “Corn plant response rating” value [14, 22] was 0. For the same compound, the “Plant response rating, Corn” value [14, 23] was 0, the “Plant response rating, Corn” value [14, 24] was 0 and the “Corn plant response rating” value [14, 18] was 0. For the same compound, the “Corn plant response rating” value [14, 19] was 0, the “Corn plant response rating” value [14, 20] was 0 and the “Corn plant response rating” value [14, 21] was 0. For the same compound, the “Velvetleaf plant response rating” value [15, 17] was 2, the “Plant response rating, Velvetleaf” value ([15]; Preemergence, Rate 62 g/ha) was 0 and the “Plant response rating, Velvetleaf” value ([15]; Preemergence, Rate 125 g/ha) was 0. For the same compound, the “Velvetleaf plant response rating” value [15, 18] was 0, the “Velvetleaf plant response rating” value [15, 19] was 0 and the “Velvetleaf plant response rating” value [15, 20] was 0. The “Velvetleaf plant response rating” value [15, 21] was 1, the “Crabgrass plant response rating” value [16, 17] was 0 and the “Crabgrass plant response rating” value [16, 22] was 0. The “Plant response rating, Crabgrass” value [16, 23] was 0, the “Plant response rating, Crabgrass” value [16, 24] was 0 and the “Crabgrass plant response rating” value [16, 18] was 0. The “Crabgrass plant response rating” value [16, 19] was 0, the “Crabgrass plant response rating” value [16, 20] was 0 and the “Crabgrass plant response rating” value [16, 21] was 0.
